# Target: mu-opioid receptor (Homo sapiens, UniProt P35372)
# Assay: biochemical
# Conditions: […]; class symbol combines EC50 and efficacy; read-out: GTP Activity
# Chain of mu-opioid receptor (P35372 whole entry, species assumed): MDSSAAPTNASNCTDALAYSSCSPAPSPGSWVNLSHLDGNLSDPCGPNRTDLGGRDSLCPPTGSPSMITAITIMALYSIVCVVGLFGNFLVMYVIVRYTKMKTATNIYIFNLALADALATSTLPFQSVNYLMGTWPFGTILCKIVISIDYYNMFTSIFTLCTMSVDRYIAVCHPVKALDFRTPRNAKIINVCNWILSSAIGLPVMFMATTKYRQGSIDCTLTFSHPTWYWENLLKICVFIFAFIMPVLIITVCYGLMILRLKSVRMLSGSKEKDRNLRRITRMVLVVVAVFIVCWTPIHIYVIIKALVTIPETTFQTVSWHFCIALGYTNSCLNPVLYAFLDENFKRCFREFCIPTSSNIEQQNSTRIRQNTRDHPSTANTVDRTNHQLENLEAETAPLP
row,Structure (SMILES),EC50
1,CNC1=C(c2nc3ccccc3[nH]2)C(=O)C2(CCCN(C(C)=O)C2)N1c1cc(OC)cc(OC)c1 (stereo not shown) [compound 273],100 to 1000 nM
2,COCC1(C)C(=O)C(c2nc3ccccc3[nH]2)=C(N)N1c1cc(OC)cc(OC)c1 (stereo not shown) [compound 296],100 to 1000 nM
3,COc1cc(OC)cc(N2C(N)=C(c3nc4ccccc4[nH]3)C(=O)C2CCCO)c1 (stereo not shown) [compound 221],100 to 1000 nM
4,COc1cc(OC)cc(N2C(N)=C(c3nc4ccccc4[nH]3)C(=O)C2CCN2CCCC2)c1 (stereo not shown) [compound 237],1000 to 10000 nM
5,CNC1=C(c2nc3ccccc3[nH]2)C(=O)[C@@](C)(CO)N1c1cc(OC)cc(OC)c1 [compound 211],100 to 1000 nM
6,COc1cc(OC)cc(N2C(N)=C(c3nc4ccccc4[nH]3)C(=O)C23CCCNC3)c1 (stereo not shown) [compound 293],1000 to 10000 nM
7,COc1cc(OC)cc(N2C(N)=C(c3nc4ccccc4[nH]3)C(=O)C23CN(C(C)=O)C3)c1 [compound 248],100 to 1000 nM
8,COc1cc(OC)cc(N2C(N)=C(c3nc4ccccc4[nH]3)C(=O)C2CCOc2ccccc2)c1 (stereo not shown) [compound 231],1000 to 10000 nM
9,CNc1c(-c2nc3ccccc3[nH]2)c(=O)n(CCO)n1-c1cc(OC)cc(OC)c1 [compound 265],100 to 1000 nM
10,CCC(=O)N1CC2(C1)C(=O)C(c1nc3ccccc3[nH]1)=C(N)N2c1cc(OC)cc(OC)c1 [compound 249],1000 to 10000 nM
11,COc1cc(OC)cc(N2C(N)=C(c3nc4ccccc4[nH]3)C(=O)C2CCNc2ccccc2)c1 (stereo not shown) [compound 232],100 to 1000 nM
12,CNC1=C(c2nc3ccccc3[nH]2)C(=O)C2(CC(=O)C2)N1c1cc(OC)cc(OC)c1 [compound 275],< 100 nM
13,CNC1=C(c2nc3ccccc3[nH]2)C(=O)C(C)(c2ccco2)N1c1cc(OC)cc(OC)c1 (stereo not shown) [compound 278],100 to 1000 nM
14,CNC1=C(c2nc3ccccc3[nH]2)C(=O)C(C)(CO)N1c1cc(OC)cc(OC)c1 (stereo not shown) [compound 201],< 100 nM
15,CCOC(=O)C1CC2(CC1=O)C(=O)C(c1nc3ccccc3[nH]1)=C(N)N2c1cc(OC)cc(OC)c1 (stereo not shown) [compound 313],1000 to 10000 nM
16,CNC1=C(c2nc3ccccc3[nH]2)C(=O)C(C)(CC(C)=O)N1c1cc(OC)cc(OC)c1 (stereo not shown) [compound 276],100 to 1000 nM
17,[2H]C1CC2(CC1=O)C(=O)C(c1nc3ccccc3[nH]1)=C(NC)N2c1cc(OC)cc(OC)c1 (stereo not shown) [compound 314],< 100 nM
18,COc1cc(OC)cc(N2C(N)=C(c3nc4ccccc4[nH]3)C(=O)[C@H]2CCO)c1 [compound 241],100 to 1000 nM
19,CNC1=C(c2nc3ccccc3[nH]2)C(=O)C(C)(CCNC(=O)COC)N1c1cc(OC)cc(OC)c1 (stereo not shown) [compound 286],< 100 nM
20,CNC1=C(c2nc3ccccc3[nH]2)C(=O)C2(CNC(=O)C2)N1c1cc(OC)cc(OC)c1 (stereo not shown) [compound 274],100 to 1000 nM
21,COc1cc(OC)cc(N2C(N)=C(c3nc4ccccc4[nH]3)C(=O)C2CCCCO)c1 (stereo not shown) [compound 223],100 to 1000 nM
22,COc1cc(OC)cc(N2C(N)=C(c3nc4ccccc4[nH]3)C(=O)C2CCc2ccccc2)c1 (stereo not shown) [compound 229],1000 to 10000 nM

row,Structure (SMILES),EC50
1,CNC1=C(c2nc3ccccc3[nH]2)C(=O)C(CO)(CO)N1c1cc(OC)cc(OC)c1 [compound 263],100 to 1000 nM
2,CNc1c(-c2nc3ccccc3[nH]2)c(=O)n(CCOC)n1-c1cc(OC)cc(OC)c1 [compound 266],< 100 nM
3,CNC1=C(c2nc3ccccc3[nH]2)C(=O)[C@](C)(COC)N1c1cc(OC)cc(OC)c1 [compound 297],100 to 1000 nM
4,CNC1=C(c2nc3ccccc3[nH]2)C(=O)C2(CCC(=O)C2)N1c1cc(OC)cc(OC)c1 (stereo not shown) [compound 312],< 100 nM
5,CNC1=C(c2nc3ccccc3[nH]2)C(=O)C(C(C)=O)N1c1cc(OC)cc(OC)c1 (stereo not shown) [compound 279],< 100 nM
6,CNC1=C(c2nc3ccccc3[nH]2)C(=O)C(C)(C(C)=O)N1c1cc(OC)cc(OC)c1 (stereo not shown) [compound 277],100 to 1000 nM
7,COc1cc(OC)cc(N2C(N)=C(c3nc4ccccc4[nH]3)C(=O)C2CC(=O)O)c1 (stereo not shown) [compound 244],1000 to 10000 nM
8,CNC1=C(c2nc3ccccc3[nH]2)C(=O)C(C)(CNC(=O)COC)N1c1cc(OC)cc(OC)c1 (stereo not shown) [compound 283],< 100 nM
9,CNc1c(-c2nc3ccccc3[nH]2)c(=O)n(CCNC(C)=O)n1-c1cc(OC)cc(OC)c1 [compound 271],100 to 1000 nM
10,CNC1=C(c2nc3ccccc3[nH]2)C(=O)[C@@H](CNC(=O)COC)N1c1cc(OC)cc(OC)c1 [compound 316],< 100 nM
11,CNC1=C(c2nc3ccccc3[nH]2)C(=O)C2(CC(O)C2)N1c1cc(OC)cc(OC)c1 (stereo not shown) [compound 259],< 100 nM
12,CNC1=C(c2nc3ccccc3[nH]2)C(=O)[C@@](C)(CCOC)N1c1cc(OC)cc(OC)c1 [compound 300],< 100 nM
13,COc1cc(OC)cc(N2C(N)=C(c3nc4ccccc4[nH]3)C(=O)C2(C)c2ccc(O)cc2)c1 (stereo not shown) [compound 209],1000 to 10000 nM
14,CNC1=C(c2nc3ccccc3[nH]2)C(=O)[C@@](C)(COC)N1c1cc(OC)cc(OC)c1 [compound 298],< 100 nM
15,COc1cc(OC)cc(N2C(N)=C(c3nc4ccccc4[nH]3)C(=O)C23CC(=O)C3)c1 [compound 207],100 to 1000 nM
16,CNC1=C(c2nc3ccccc3[nH]2)C(=O)C(CO)(CCl)N1c1cc(OC)cc(OC)c1 (stereo not shown) [compound 264],100 to 1000 nM
17,CNC1=C(c2nc3ccccc3[nH]2)C(=O)[C@](C)(CNC(=O)COC)N1c1cc(OC)cc(OC)c1 [compound 317],100 to 1000 nM
18,COc1cc(OC)cc(N2C(N)=C(c3nc4ccccc4[nH]3)C(=O)C2CCn2ccnc2)c1 (stereo not shown) [compound 239],100 to 1000 nM
19,COc1cc(OC)cc(N2C(N)=C(c3nc4ccccc4[nH]3)C(=O)C2CCN(C)C(=O)c2ccccc2)c1 (stereo not shown) [compound 257],100 to 1000 nM
20,CNC1=C(c2nc3ccccc3[nH]2)C(=O)C(C)(CCNC(C)=O)N1c1cc(OC)cc(OC)c1 (stereo not shown) [compound 284],< 100 nM
21,CNC1=C(c2nc3ccccc3[nH]2)C(=O)[C@]2(C[C@H](O)C2)N1c1cc(OC)cc(OC)c1 [compound 260],100 to 1000 nM
22,COc1cc(OC)cc(N2C(N)=C(c3nc4ccccc4[nH]3)C(=O)C23CN(C(=O)c2ccccc2)C3)c1 [compound 250],1000 to 10000 nM

# Same assay, conditions: class symbols; read-out: GTP Activity
row,Structure (SMILES),EC50
1,COCCNC1=C(c2nc3ccccc3[nH]2)C(=O)C(C)(C)N1c1cc(OC)cc(OC)c1 [compound 91],1000 to 10000 nM
2,CCc1cc(CC)cc(N2C(N)=C(c3nc4ccccc4[nH]3)C(=O)C2(C)C)c1 [compound 156],100 to 1000 nM
3,COc1cc(OC)cc(N2C(N)=C(c3nc4ccccc4[nH]3)C(=O)C2(C)O)c1 (stereo not shown) [compound 112],100 to 1000 nM
4,COc1cc(OC)cc(N2C(N)=C(c3nc4ccccc4[nH]3)C(=O)C23CCNC3)c1 (stereo not shown) [compound 182],100 to 1000 nM
5,CC[C@@]1(C)C(=O)C(c2nc3ccccc3[nH]2)=C(N)N1c1cc(OC)cc(OC)c1 [compound 85],100 to 1000 nM
6,COc1cc(OC)cc(N2CC(=O)C(c3nc4c(F)cccc4[nH]3)=C2N)c1 [compound 11],1000 to 10000 nM
7,COc1cc(OC)cc(N2C(N)=C(c3nc4ccccc4[nH]3)C(=O)C2(C)CO)c1 (stereo not shown) [compound 133],100 to 1000 nM
8,CNC1=C(c2nc3ccccc3n2C)C(=O)C(C)(C)N1c1cc(OC)cc(OC)c1 [compound 81],100 to 1000 nM
9,CNc1c(-c2nc3ccccc3[nH]2)c(=O)n(C)n1-c1cc(OC)cc(OC)c1 [compound 140],< 100 nM
10,COc1cc(OC)cc(-n2nc(Nc3ccccc3)c(-c3nc4ccccc4[nH]3)c2O)c1 [compound 197],1000 to 10000 nM
11,C=CCNC1=C(c2nc3ccccc3[nH]2)C(=O)C(C)(C)N1c1cc(OC)cc(OC)c1 [compound 122],100 to 1000 nM
12,CCOc1cc(OCC)cc(N2C(N)=C(c3nc4ccccc4[nH]3)C(=O)C2(C)C)c1 [compound 158],1000 to 10000 nM
13,COc1ccc(OC)c(N2C(N)=C(c3nc4ccccc4[nH]3)C(=O)C2(C)C)c1 [compound 165],1000 to 10000 nM
14,COc1cc(OC)cc(N2CC(=O)C(c3nc4c(C)cccc4[nH]3)=C2N)c1 [compound 5],1000 to 10000 nM
15,COc1cc(OC)cc(N2C(N)=C(c3nc4ccccc4[nH]3)C(=O)C2(C)OC)c1 (stereo not shown) [compound 119],1000 to 10000 nM
16,COc1cc(OC)cc(N2C(N)=C(c3nc4ccccc4[nH]3)C(=O)C23CCN(C)C3)c1 (stereo not shown) [compound 183],1000 to 10000 nM

row,Structure (SMILES),EC50
1,CNC1=C(c2nc3ccccc3[nH]2)C(=O)C2(COC2)N1c1cc(OC)cc(OC)c1 [compound 194],< 100 nM
2,COc1cc(OC)cc(-n2nc(N)c(-c3nc4ccccc4[nH]3)c2N)c1 [compound 66],100 to 1000 nM
3,COc1cc(OC)cc(-n2c(=O)c(-c3nc4ccccc4[nH]3)c(N)n2C(C)C)c1 [compound 74],1000 to 10000 nM
4,CCc1cc(OC)cc(N2C(N)=C(c3nc4ccccc4[nH]3)C(=O)C2(C)C)c1 [compound 155],100 to 1000 nM
5,CC(C)(C)c1ccccc1N1CC(=O)C(c2nc3ccccc3[nH]2)=C1N [compound 48],1000 to 10000 nM
6,COc1cc(OC)cc(N2C(NCC3CC3)=C(c3nc4ccccc4[nH]3)C(=O)C2(C)C)c1 [compound 125],1000 to 10000 nM
7,COc1cc(OC)cc(N2C(N)=C(c3nc4ccccc4[nH]3)C(=O)[C@@H]2C)c1 [compound 83],1000 to 10000 nM
8,COc1cc(OC)cc(N2C(N)=C(c3nc4ccccc4[nH]3)C(=O)C23CC3)c1 [compound 131],1000 to 10000 nM
9,COc1cc(OC)cc(N2C(N)=C(c3nc4ccccc4[nH]3)C(=O)[C@@H]2c2ccccc2)c1 [compound 106],1000 to 10000 nM
10,COc1cc(OC)cc(N2C(N)=C(c3nc4ccccc4[nH]3)C(=O)C2CO)c1 (stereo not shown) [compound 67],1000 to 10000 nM
11,CNC1=C(c2nc3ccccc3[nH]2)C(=O)C2(CN(C)C2)N1c1cc(OC)cc(OC)c1 [compound 193],100 to 1000 nM
12,CC(C)(C)Oc1ccccc1N1CC(=O)C(c2nc3ccccc3[nH]2)=C1N [compound 45],1000 to 10000 nM
13,[2H]C([2H])([2H])Oc1cc(OC([2H])([2H])[2H])cc(N2C(NC)=C(c3nc4ccccc4[nH]3)C(=O)C2(C)C)c1 [compound 175],< 100 nM
14,CC[C@@H]1C(=O)C(c2nc3ccccc3[nH]2)=C(N)N1c1cc(OC)cc(OC)c1 [compound 97],1000 to 10000 nM
15,NC1=C(c2nc3ccccc3[nH]2)C(=O)CN1c1ccccc1Oc1ccccc1 [compound 46],1000 to 10000 nM
16,Cc1ccc(N2C(N)=C(c3nc4ccccc4[nH]3)C(=O)C2(C)C)c(C)c1 [compound 101],100 to 1000 nM

# From patent publication US9580409B2, “Modulators of opioid receptors and methods of use thereof” (priority 2011, dated 2017)
